Values after ≈ are worked out from the molar mass of the structure shown. Where two headings read alike, the source gives them in different places.
Tests used:
[1] = test system: human hepatocarcinoma cell line ATCC HB-8065 (HepG2); assay: Human cell viability (CellTiter-Glo); type: cell-based; conditions: HepG2 cells, 24 h incubation, CellTiter-Glo luminescence, 0.2-100 μM, read-out: IC50 values against the HepG2 cell line
Method in brief: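 HepG2 cells were seeded at 20,000 cells/well in MEM with 10% FBS and, after 24 h, exposed for 24 h at 37° C. to two-fold dilutions (final 0.2-100 μM) in MEM with 1% FBS and 1% DMSO. Viability was read by CellTiter-Glo luminescence, with IC50 from a 4-parameter logistic fit.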

[2] = test system: E. coli NCTC 13441 (UPEC); assay: MIC broth microdilution; type: cell-based, Escherichia coli; conditions: for MIC: Escherichia coli, NCTC13441
Method in brief: (§1)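 Compounds are diluted two-fold across a final range of 0.39-200 μM, keeping DMSO no higher than 2% final. Bacteria in cation-adjusted Müller-Hinton broth are then incubated at 37° C under ambient atmosphere for 20-24 h. The lowest growth-inhibiting concentration gives the MIC.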

[3] = test system: Escherichia coli K12 (EC); assay: MIC broth microdilution; type: cell-based
Method in brief: as §1

[4] = test system: Klebsiella pneumoniae ATCC 10031 (KP2); assay: MIC broth microdilution; type: cell-based; conditions: for MIC: ATCC10031
Method in brief: (§2)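 Two-fold dilution series, 0.39-200 μM final, max 2% DMSO; CA-MHB; 37° C, ambient air, 20-24 h; MIC = lowest conc. inhibiting visible growth. CLSI broth microdilution.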

[5] = test system: Pseudomonas aeruginosa ATCC 33359 (PA); assay: MIC broth microdilution; type: cell-based; conditions: for MIC: ATCC33359
Method in brief: as §1

[6] = test system: Staphylococcus aureus ATCC 35556 (SA); assay: MIC broth microdilution; type: cell-based; conditions: for MIC: ATCC35556
Method in brief: as §1

[7] = test system: Klebsiella pneumoniae ATCC 51504 (KP4); assay: MIC broth microdilution; type: cell-based; conditions: ATCC51504
Method in brief: as §1

[8] = test system: Acinetobacter baumannii ATCC 17978 (AB); assay: MIC broth microdilution; type: cell-based; conditions: for MIC: ATCC17978
Method in brief: as §1

[9] = test system: K. pneumoniae H154300688 (KP9); assay: MIC broth microdilution; type: cell-based, Klebsiella pneumoniae; conditions: for MIC: Klebsiella pneumoniae
Method in brief: as §2

[10] = test system: K. pneumoniae NCTC 13438 (KP1); assay: MIC broth microdilution; type: cell-based, Klebsiella pneumoniae; conditions: for MIC: Klebsiella pneumoniae, NCTC13438
Method in brief: as §2

[11] = test system: K. pneumoniae H151440671 (KP10); assay: MIC broth microdilution; type: cell-based, Klebsiella pneumoniae; conditions: for MIC: Klebsiella pneumoniae
Method in brief: as §2

[12] = test system: K. pneumoniae H154600588 (KP8); assay: MIC broth microdilution; type: cell-based, Klebsiella pneumoniae; conditions: for MIC: Klebsiella pneumoniae
Method in brief: as §2

[13] = test system: K. pneumoniae ATCC 700603 (KP3); assay: MIC broth microdilution; type: cell-based, Klebsiella pneumoniae; conditions: for MIC: Klebsiella pneumoniae, ATCC700603
Method in brief: as §2

[14] = test system: K. pneumoniae H154680676 (KP5); assay: MIC broth microdilution; type: cell-based, Klebsiella pneumoniae; conditions: for MIC: Klebsiella pneumoniae
Method in brief: as §2

[15] = test system: K. pneumoniae H154640784 (KP7); assay: MIC broth microdilution; type: cell-based, Klebsiella pneumoniae; conditions: for MIC: Klebsiella pneumoniae
Method in brief: as §2

[16] = test system: K. pneumoniae H154020667 (KP6); assay: MIC broth microdilution; type: cell-based, Klebsiella pneumoniae; conditions: for MIC: Klebsiella pneumoniae
Method in brief: as §2

[17] = test system: Serratia marcescens SL1344 (Sm); assay: MIC broth microdilution; type: cell-based
Method in brief: as §1

[18] = test system: Salmonella typhimurium XNAA5 (St); assay: MIC broth microdilution; type: cell-based
Method in brief: as §1

SMILES | IC50 ([1]; Homo sapiens) | MIC [2] | MIC [3] | MIC [4] | MIC [5] | MIC [6] | MIC [7] | MIC [8] | MIC [9] | MIC [10] | MIC [11] | MIC [12] | MIC [13] | MIC [14] | MIC [15] | MIC [16] | further results
Cc1cc(-c2[nH]c(N)nc2-c2ccc3c(c2)N(CC2CC2)CCO3)ccn1 [Example 92, 4-(4-(Cyclopropyl-methyl)-3,4-dihydro-2H-benzo[b][1,4]oxazin-6-yl)-5-(2-methylpyridin-4-yl)-1H-imidazol-2-amine] | 25 to 100 µM | 1 to 10 µM (≈ 0.361 to 3.61 µg/mL) | ≤ 1 µM | ≤ 1 µM | > 100 µM | > 100 µM | 1 to 10 µM (≈ 0.361 to 3.61 µg/mL) | > 100 µM | 1 to 10 µM (≈ 0.361 to 3.61 µg/mL) | 1 to 10 µM (≈ 0.361 to 3.61 µg/mL) | 1 to 10 µM (≈ 0.361 to 3.61 µg/mL) | 1 to 10 µM (≈ 0.361 to 3.61 µg/mL) | 1 to 10 µM (≈ 0.361 to 3.61 µg/mL) | ≤ 1 µM | 1 to 10 µM (≈ 0.361 to 3.61 µg/mL) | ≤ 1 µM | 
Cc1cc(-c2[nH]c(N)nc2-c2ccc3c(c2)OCCO3)ccn1 [Example 32, 4-(2,3-Dihydrobenzo[b][1,4]dioxin-6-yl)-5-(2-methylpyridin-4-yl)-1H-imidazol-2-amine] |  |  |  |  |  |  | 1 to 10 µM (≈ 0.308 to 3.08 µg/mL) |  |  |  |  |  |  |  |  |  | IC50 [1]: > 100 µM; MIC UPEC [2]: A (an MIC (μM) of less or equal to 1 is assigned the letter A); MIC EC [3]: A (an MIC (μM) of less or equal to 1 is assigned the letter A); MIC KP2 [4]: A (an MIC (μM) of less or equal to 1 is assigned the letter A); MIC PA [5]: D (a MIC of over 100 is assigned the letter D); MIC SA [6]: D (a MIC of over 100 is assigned the letter D); MIC AB [8]: D (a MIC of over 100 is assigned the letter D); MIC KP9 [9]: B (a MIC of from 1 to 10 is assigned the letter B); MIC KP1 [10]: B (a MIC of from 1 to 10 is assigned the letter B); MIC KP10 [11]: B (a MIC of from 1 to 10 is assigned the letter B); MIC KP8 [12]: B (a MIC of from 1 to 10 is assigned the letter B); MIC KP3 [13]: B (a MIC of from 1 to 10 is assigned the letter B); MIC KP5 [14]: B (a MIC of from 1 to 10 is assigned the letter B); MIC KP7 [15]: B (a MIC of from 1 to 10 is assigned the letter B); MIC KP6 [16]: B (a MIC of from 1 to 10 is assigned the letter B)
Cc1cc(-c2[nH]c(N)nc2-c2cc(F)c3c(c2)OCCO3)ccn1 [Example 56, 4-(8-fluoro-2,3-dihydrobenzo[b][1,4]dioxin-6-yl)-5-(2-methylpyridin-4-yl)-1H-imidazol-2-amine] | > 100 µM | 1 to 10 µM (≈ 0.326 to 3.26 µg/mL) | 1 to 10 µM (≈ 0.326 to 3.26 µg/mL) | ≤ 1 µM | > 100 µM | > 100 µM | ≤ 1 µM | > 100 µM | 1 to 10 µM (≈ 0.326 to 3.26 µg/mL) | 1 to 10 µM (≈ 0.326 to 3.26 µg/mL) | ≤ 1 µM | 1 to 10 µM (≈ 0.326 to 3.26 µg/mL) | 1 to 10 µM (≈ 0.326 to 3.26 µg/mL) | ≤ 1 µM | 1 to 10 µM (≈ 0.326 to 3.26 µg/mL) | ≤ 1 µM | 
Cc1cc(-c2[nH]c(N)nc2-c2ccc3c(c2)NCCC3)ccn1 [Example 58, 5-(2-Methylpyridin-4-yl)-4-(1,2,3,4-tetrahydroquinolin-7-yl)-1H-imidazol-2-amine] | > 100 µM | ≤ 1 µM | 1 to 10 µM (≈ 0.305 to 3.05 µg/mL) | ≤ 1 µM | > 100 µM | > 100 µM | 1 to 10 µM (≈ 0.305 to 3.05 µg/mL) | > 100 µM | 1 to 10 µM (≈ 0.305 to 3.05 µg/mL) | 10 to 100 µM (≈ 3.05 to 30.5 µg/mL) | 1 to 10 µM (≈ 0.305 to 3.05 µg/mL) | 10 to 100 µM (≈ 3.05 to 30.5 µg/mL) | 10 to 100 µM (≈ 3.05 to 30.5 µg/mL) | 1 to 10 µM (≈ 0.305 to 3.05 µg/mL) | 10 to 100 µM (≈ 3.05 to 30.5 µg/mL) | 1 to 10 µM (≈ 0.305 to 3.05 µg/mL) | 
Cc1cc(-c2[nH]c(N)nc2-c2cc(F)c3c(c2)NCCO3)ccn1 [Example 49, 4-(8-Fluoro-3,4-dihydro-2H-benzo[b][1,4]oxazin-6-yl)-5-(2-methylpyridin-4-yl)-1H-imidazol-2-amine] | > 100 µM | 1 to 10 µM (≈ 0.325 to 3.25 µg/mL) | ≤ 1 µM | ≤ 1 µM | > 100 µM | > 100 µM | ≤ 1 µM | > 100 µM | 1 to 10 µM (≈ 0.325 to 3.25 µg/mL) | 1 to 10 µM (≈ 0.325 to 3.25 µg/mL) | 1 to 10 µM (≈ 0.325 to 3.25 µg/mL) | 1 to 10 µM (≈ 0.325 to 3.25 µg/mL) | 1 to 10 µM (≈ 0.325 to 3.25 µg/mL) | ≤ 1 µM | 1 to 10 µM (≈ 0.325 to 3.25 µg/mL) | ≤ 1 µM | 
COc1ccc(-c2nc(N)[nH]c2-c2ccnc(C)c2)cc1Cl [Example 12, 4-(3-Chloro-4-methoxyphenyl)-5-(2-methylpyridin-4-yl)-1H-imidazol-2-amine] | > 100 µM | 1 to 10 µM (≈ 0.315 to 3.15 µg/mL) | 1 to 10 µM (≈ 0.315 to 3.15 µg/mL) | ≤ 1 µM | > 100 µM | > 100 µM |  | > 100 µM | 1 to 10 µM (≈ 0.315 to 3.15 µg/mL) | 10 to 100 µM (≈ 3.15 to 31.5 µg/mL) | 1 to 10 µM (≈ 0.315 to 3.15 µg/mL) | 10 to 100 µM (≈ 3.15 to 31.5 µg/mL) | 10 to 100 µM (≈ 3.15 to 31.5 µg/mL) | 1 to 10 µM (≈ 0.315 to 3.15 µg/mL) | 10 to 100 µM (≈ 3.15 to 31.5 µg/mL) | 1 to 10 µM (≈ 0.315 to 3.15 µg/mL) | 
Nc1cc(-c2[nH]c(N)nc2-c2ccc3c(c2)OCCO3)ccn1 [Example 24, 4-(2-Amino-4-(2,3-dihydrobenzo[b][1,4]dioxin-6-yl)-1H-imidazol-5-yl)pyridin-2-amine] | > 100 µM | 1 to 10 µM (≈ 0.309 to 3.09 µg/mL) | 1 to 10 µM (≈ 0.309 to 3.09 µg/mL) | ≤ 1 µM | > 100 µM | > 100 µM |  | > 100 µM | 10 to 100 µM (≈ 3.09 to 30.9 µg/mL) | 10 to 100 µM (≈ 3.09 to 30.9 µg/mL) | 1 to 10 µM (≈ 0.309 to 3.09 µg/mL) | 10 to 100 µM (≈ 3.09 to 30.9 µg/mL) | 10 to 100 µM (≈ 3.09 to 30.9 µg/mL) | 1 to 10 µM (≈ 0.309 to 3.09 µg/mL) | 10 to 100 µM (≈ 3.09 to 30.9 µg/mL) | 1 to 10 µM (≈ 0.309 to 3.09 µg/mL) | 
O=C(O)c1cn(C2CC2)c2cc(N3CCNCC3)c(F)cc2c1=O [CIP] |  |  |  |  |  |  |  |  |  |  |  |  |  |  |  |  | MIC UPEC [2]: D (a MIC of over 100 is assigned the letter D); MIC Sm [17]: A (an MIC (μM) of less or equal to 1 is assigned the letter A); MIC EC [3]: A (an MIC (μM) of less or equal to 1 is assigned the letter A); MIC PA [5]: B (a MIC of from 1 to 10 is assigned the letter B); MIC SA [6]: B (a MIC of from 1 to 10 is assigned the letter B); MIC St [18]: A (an MIC (μM) of less or equal to 1 is assigned the letter A); MIC AB [8]: A (an MIC (μM) of less or equal to 1 is assigned the letter A)
COc1ncc(-c2nc(N)[nH]c2-c2ccnc(C)c2)cc1F [Example 29, 4-(5-Fluoro-6-methoxypyridin-3-yl)-5-(2-methylpyridin-4-yl)-1H-imidazol-2-amine] | > 100 µM | ≤ 1 µM | ≤ 1 µM | ≤ 1 µM | > 100 µM | > 100 µM |  | > 100 µM | 1 to 10 µM (≈ 0.299 to 2.99 µg/mL) | 10 to 100 µM (≈ 2.99 to 29.9 µg/mL) | 1 to 10 µM (≈ 0.299 to 2.99 µg/mL) | 10 to 100 µM (≈ 2.99 to 29.9 µg/mL) | 10 to 100 µM (≈ 2.99 to 29.9 µg/mL) | 1 to 10 µM (≈ 0.299 to 2.99 µg/mL) | 10 to 100 µM (≈ 2.99 to 29.9 µg/mL) | 1 to 10 µM (≈ 0.299 to 2.99 µg/mL) | 

Reference: patent publication US11345694B2, “Antibacterial compounds” (DISCUVA LTD., priority 2017, dated 2022)
